Test results reported in ChEMBL document CHEMBL3507680, “University of Dundee, Gates Library screen for HepG2 cell viability”.

Assay: Human HepG2 cell viability assay in 384 well format
Format: toxicity, cell-based
Set-up: dose 125 nL, time 70.5 hour; concentration not given beside the values
Details: HepG2 cells, read-out: Inhibition

Row | SMILES | cytotoxicity at 70.5 h [%]
1 | CC(O)CN(c1ccccc1)S(=O)(=O)c1cc(C(=O)O)cc2c1CCC2 (centres undefined) | -7.68
2 | COCCC(=O)N1CCC2(CC1)CC(c1ccccc1)CN(C)C2 (centres undefined) | -5.14
3 | CNc1nc(C(=O)NCC2CCOc3ccccc3C2)cs1 (centres undefined) | 15.5
4 | Cc1ccc(Oc2ncccc2CNC(=O)C2COC(=O)N2)c(F)c1F (centres undefined) | -11.2
5 | O=C(C1CCCS1)N1CCOc2cccc(F)c21 (centres undefined) | -3.7
6 | Cc1[nH]ncc1C(=O)N1CCOC(c2cccs2)C1 (centres undefined) | 25.7
7 | COC(=O)c1sccc1S(=O)(=O)N1CCC(Oc2cccc(C)n2)CC1 | -9.62
8 | Cc1ccc(-c2nc(CN3CCc4nn(C)c(=O)cc4C3)co2)cc1 | -17
9 | Cc1nn(CCC(=O)NC(C(=O)O)c2c(C)n[nH]c2C)c(C)c1C (centres undefined) | -3.08
10 | CCc1ccc(C(=O)NCCCC2(C3OCCO3)CCOCC2)cc1 | 11.6
11 | FC(F)(F)Oc1ccc(-c2c[nH]c([C@@H]3COCCN3)n2)cc1 | -3.01
12 | N#Cc1ccc(OCCN2CCc3c(ncn3C3CC3)C2)cc1 | 8.16
13 | Cc1cnn(CC2CCCN2C(=O)CCc2c(C)nn(C)c2C)c1 (centres undefined) | -18.5
14 | COc1c(C2CCCN2CC(=O)Nc2cc(C)on2)c(C)nn1C (centres undefined) | 12.2
15 | CCC1CN(C(=O)c2ccc(O)cn2)CCC(=O)N1Cc1ccccc1 (centres undefined) | -3.56
16 | Cc1ccc2oc(C(=O)N3CCCC(c4noc(C)n4)C3)cc2n1 (centres undefined) | -5.41
17 | CCc1nsc(N2CCN(C(=O)c3ccnc(N(C)C)c3)CC2)n1 | -6.45
18 | Cc1cccc(C(=O)NC(C)CN2CCCC2=O)n1 (centres undefined) | 21
19 | Cc1cn2nc(N3CCCC3CC(C)(C)C)sc2n1 (centres undefined) | -4.57
20 | CN1CCOCC2(CCN(Cc3ccc[nH]3)CC2)C1 | 30
21 | Cc1cc(CNC(=O)[C@H]2CCCCN2C(=O)OC(C)(C)C)on1 | -1.11
22 | CC(=O)N1CCC(CCNC(C)c2cc(C)cc(C)c2)CC1 (centres undefined) | 3.75
23 | CN(C)[C@@H]1CCN(C(=O)c2ccccn2)[C@H]1Cc1ccncc1 | -13

Row | SMILES | cytotoxicity at 70.5 h [%]
24 | c1ccc(CN2CCCn3nnc(CNc4ncccn4)c3C2)nc1 | -87.8
25 | Cc1ccc(CN2CC[C@H](O)[C@@H](n3ccc(=O)[nH]c3=O)CC2)cc1 | -2.58
26 | c1cncc(NCCCNC2CCSC2)c1 (centres undefined) | -3.16
27 | Cc1nocc1C(=O)N1CCc2c(CN(C)C(C)C)n[nH]c2C1 | -8.09
28 | Cc1ccc(S(=O)(=O)Cc2noc([C@@H]3C[C@@H](O)CN3C(C)C)n2)cc1 | -8.79
29 | CC(=O)N1CCCN(C(=O)NCCc2ccc(Cl)s2)CC1 | -1.97
30 | Cc1nn(C)c(C)c1C(=O)NCc1cccnc1OC1CCCC1 | -5.73
31 | Cc1cc(C(=O)O)cc(S(=O)(=O)Nc2ccc3c(c2)OCO3)c1C | 20.2
32 | CN(C(=O)c1ccc(NC(=O)c2cc[nH]n2)cc1)C1CCCCC1 | -9.38
33 | C/C(=C\c1ccco1)CN(C)C(C)c1ccccn1 (centres undefined) | 16.1
34 | CCCC(=O)Nc1ccc(CC(=O)N(C)CCc2cn[nH]c2)cc1 | -7.4
35 | CN1Cc2ccccc2N(CC(O)C(F)(F)F)CCC1=O (centres undefined) | -6.68
36 | CN(Cc1ccco1)C[C@H]1OC[C@@H]2CN(c3ncc(F)cn3)CC[C@@H]21 | -1.81
37 | Cn1cc(N2CC3(CCN(C(=O)c4cccn4C)CC3)OCC2=O)cn1 | -12.8
38 | CC(C)C(=O)NC1COC2(CCN(Cc3cccnc3)CC2)C1 (centres undefined) | -10.3
39 | COCCN(Cc1sccc1C)C(=O)C1CCCN(C(N)=O)C1 (centres undefined) | 9.09
40 | Cc1noc(Cl)c1CCC(=O)N1CCN(Cc2ccncc2)CC1 | -4.95
41 | COc1cccc2sc(OC3CN(C(=O)C4=COCCO4)C3)nc12 | -8.14
42 | O=C(CC1CC1)N1CCC2(CC1)CN(CCn1cccn1)C(=O)CO2 | -4.82
43 | CCOCC1CN(Cc2ccc(OC)cc2)Cc2nn(CC3CC3)cc21 (centres undefined) | -5.83
44 | CCN(Cc1ccccn1)Cc1cc(Cl)ccc1OC | 2.41
45 | CS(=O)(=O)CC1(CNc2ccc(C#N)c(C(F)(F)F)c2)CC1 | -3.35
46 | COCc1nc2cc(NCc3sc(C)nc3C)ccc2o1 | -4.53

Row | SMILES | cytotoxicity at 70.5 h [%]
47 | Cc1cc(N(C)C)nc(NC2CCc3nc(C)nn3C2)n1 (centres undefined) | 6.17
48 | c1cnc(N2CCOC3(COCCN(Cc4cc[nH]n4)C3)C2)nc1 (centres undefined) | -8.27
49 | C[C@@H]1CN(C(=O)CCCN2CCOCC2)CC[C@@]1(O)C1CCC1 | -3.73
50 | NC(=O)c1ccc(OCCCN2C[C@H](C3CC3)[C@@H](N)C2)cc1 | -5.8
51 | CCc1ccc(Cn2nccc2NC(=O)C2CCS(=O)(=O)C2)cc1 (centres undefined) | -3.51
52 | CN(C)Cc1nnc2n1CCN(Cc1ccccn1)CC2 | -10.5
53 | O=C(N1CCOCC1)N1CCc2ncc(CN3CCCCC3)n2CC1 | -12.1
54 | CC(NCc1ccc(Cl)o1)c1nnc2n1CCCC2 (centres undefined) | 9.09
55 | Cc1cc(C)n(NC(=O)c2ccccc2F)c(=O)c1 | 15.6
56 | Cc1nn(C2CCS(=O)(=O)C2)c(O)c1Cc1ccc(Br)cc1 (centres undefined) | 19.3
57 | CN(Cc1nnc(C2CC2)n1C)C1CCN(CCc2ccccc2)C1 (centres undefined) | -3.03
58 | CCn1cnnc1CNS(=O)(=O)N1CCCC1c1ccc(C)o1 (centres undefined) | -4.31
59 | COC(=O)CN1CC(c2nc(Cc3ccccc3)no2)C1 | -6.57
60 | Cc1nn(C)c(N2CCOCC2)c1CNC(c1cccs1)C(C)C (centres undefined) | 6.88
61 | c1coc(CNCC2Cn3nncc3CO2)c1 (centres undefined) | -8.73
62 | CC(C)(C)C(=O)NCCc1ccn(-c2ccccc2)n1 | -17.1
63 | CC(C)c1ncc2c(n1)CN(Cc1nc3c(F)cccc3[nH]1)CC2 | 21
64 | COc1ccc(CNc2c(N3CCN(C(C)=O)CC3)c(=O)c2=O)cc1 | -12.5
65 | CCS(=O)(=O)N1CCC2(CN(c3cccc(C)n3)C2)C1 | -4.08
66 | Cc1nc(C)c(C)c(N(C)CCCc2nccn2C)n1 | -8.93
67 | Cc1ccc(Nc2ncnc3c2CCN(CC2CCOC2)CC3)cc1 (centres undefined) | -7.38
68 | Cc1ccccc1C1(C(=O)NCCN2CCCC(C)C2)CCOCC1 (centres undefined) | 32.7
69 | Cc1nn(C)c(C)c1S(=O)(=O)NCCn1ccc(-c2cccs2)n1 | -0.512

Row | SMILES | cytotoxicity at 70.5 h [%]
70 | COc1ccccc1CN1CCN(CCN2CCOC2=O)CC1 | 8.76
71 | CCOCCCC(=O)Nc1cc(C(N)=O)ccc1N1CCCCC1 | -9.3
72 | CCCNC(=O)CNC(=O)CC1CCCc2cc(OC)ccc21 (centres undefined) | -6.62
73 | CCOc1cccc(CNC(=O)C(C)(C)C#N)c1OC(F)F | -2.64
74 | Cc1ccc2nc(-c3cnc(N)nc3)c(C)c(C(=O)N(C)C)c2c1 | 11.2
75 | NS(=O)(=O)CCCNC(=O)C1(c2cccc(Cl)c2)CC1 | -22.9
76 | Cc1n[nH]c(SCC(=O)NC(c2ccncc2)C(C)C)n1 (centres undefined) | 21
77 | CC(C)n1cnnc1CN(C)C(=O)c1ccccc1-n1cncn1 | 0.803
78 | Cc1noc(C(C)C)c1C(=O)NCCCN1CCCCCC1=O | -7.03
79 | CS(=O)(=O)N1CCC[C@H]1c1ncnn1-c1ccc2c(c1)OCO2 | -1.95
80 | COc1cccc(OC)c1C(=O)NCC(c1cccn1C)N1CCCC1 (centres undefined) | -5.44
81 | Cn1nnnc1SCCC(=O)NCC(C)(C)c1ccccc1F | 19.1
82 | CC(c1cccc(S(N)(=O)=O)c1)N(C)CCOc1ccccc1 (centres undefined) | -16.8
83 | CCN(Cc1ccoc1)C(C(N)=O)c1cccc(Br)c1 (centres undefined) | -7.25
84 | CC(Cc1ccco1)NC(=O)Nc1ccc(N2CCCC2)nc1 (centres undefined) | -7.87
85 | CCOC(=O)N1CCN(Cc2ccc(OCc3nccn3C)cc2)CC1 | 1.77
86 | CO[C@@H]1CO[C@@]2(CCCN(S(=O)(=O)c3ccccc3)C2)C1 | -14.8
87 | COCc1nc(C(=O)N2CCCC2c2cccc(C)c2)cs1 (centres undefined) | -8.14
88 | CCN(Cc1ccc(-c2ccccn2)cc1)C1CCS(=O)(=O)C1 (centres undefined) | -1.78
89 | COC(=O)C1CCCN1C(=O)c1ccc(Br)cc1F (centres undefined) | 12.6
90 | CCS(=O)(=O)c1ccc2oc([C@H]3CCN(CC4CCCCC4)C3)nc2c1 | 13.1
91 | CS(=O)(=O)Cc1ccc(CNc2ncc(C#N)cc2Cl)cc1 | 1.58
92 | CCCn1ccnc1CN1CCCC(O)(CN(C)C)CC1 (centres undefined) | -3.55

Row | SMILES | cytotoxicity at 70.5 h [%]
93 | C[C@@H]1CN(C2(C(=O)N(C)C)Cc3ccccc3C2)C[C@H](C)O1 | 13.4
94 | NC(=O)c1ccc(N2CCN(Cc3cccc4nsnc34)CC2)nc1 | -4.59
95 | CC(C)NC(=O)[C@@H]1C[C@H](N)CN1C(=O)c1cc2c([nH]c1=O)CCCC2 | -7.39
96 | CN(Cc1nnc2n1CCC2)S(=O)(=O)c1ccc(Br)cc1Cl | -4.12
97 | Cc1cccc(C(=O)N2CCN(CCC(C)C)CC2)n1 | -11.4
98 | COc1ccc(N2CCN(C(=O)c3nc(Cl)sc3C(C)C)CC2)cc1 | -18.9
99 | CC1=N[C@@]2(CC[C@@H]3CN(CC(C)C)C[C@@H]32)C(=O)N1CC(C)C | -13.7
100 | Cn1cnc(S(=O)(=O)NCCCN2CCCCCC2)c1Cl | -6.45
101 | O=C1CC(c2ccc(O)cc2)c2c(c(C(=O)O)cn2-c2ccccc2)N1 (centres undefined) | -10.6
102 | CC(=O)NCCNC(=O)CN1CCCC1Cn1nc(C)nc1C (centres undefined) | -16.9
103 | O=C(NS(=O)(=O)c1cccnc1)C1CC(c2ccccc2)=NO1 (centres undefined) | -4.92
104 | Cc1cccc(C(=O)NCc2ccccc2)n1 | -15.5
105 | COCC(=O)NC(C)Cc1ccc(Br)cc1 (centres undefined) | 2.28
106 | O=C(CCNC(=O)c1cccc(OC(F)F)c1)Nc1cccnc1 | -3.8
107 | CCOC(=O)[C@H]1[C@@H](O)C(=O)N(C)C12CCN(C(=O)CC1CCCC1)CC2 | -3.01
108 | NCCn1nc(C2CCN(Cc3ccccc3Cl)C2)c2nccnc21 (centres undefined) | -4.18
109 | Cc1ccc(O)c(CNc2cccc(OCCF)c2)n1 | -5.5
110 | Cc1cncc(C2CCN(Cc3ccncc3)CC2)n1 | -7.83
111 | N#Cc1ccc(CC(=O)N2CCC(Nc3cccnn3)CC2)cc1 | -5.35
112 | CNC(=O)c1cn[nH]c1C1CCN(Cc2cccc(C)c2OC)C1 (centres undefined) | -3.82
113 | CC(C)Oc1cccc(CNC(=O)NC(C)(C(=O)O)c2ccco2)c1 (centres undefined) | -0.448
114 | Cn1ccnc1CN1CCC2(CC1)Cc1ccccc1CNC2=O | -3.2
